According to patent US20230365624A1, “NOVEL ANGIOTENSIN I-CONVERTING ENZYME (ACE) INHIBITORY PEPTIDES” (Thai Union Group Public Company Limited, priority 2020, published 2023):
No end group written: not given here.

Tested on: GI enzymes (pepsin and pancreatin)
Experiment: In vitro gastrointestinal (GI) digestion of synthetic peptides, with ACE inhibitory activity and α-amino group content before and after
Format: in vitro ADME
Conditions: pepsin pH 2.0, 37° C., 1 h, then pancreatin pH 7.5, 37° C., 2 h (FIG. 6)
Method: It is necessary for ACE inhibitory peptides to retain its activity in GI tract so that it can be absorbed into the bloodstream, where the peptide inhibitors can show their hypotensive effect. In vitro gastrointestinal digestion provides an easy process to imitate antihypertensive activity of peptides under oral administration. […] In vitro GI digestion was simulated according to the method of Zhu et al. (2008) with some modifications. One milligram of each sample was dissolved in 0.5 ml of 0.1 M KCl-HCl, and the pH was adjusted to 2.0 with 6 M HCl. Pepsin (1% enzyme/substrate, w/w) was added, and the mixture was incubated in a shaking water bath at 37° C. for 1 h, and the pH was then adjusted to pH 7.5. […] ACE inhibitory activity and α-amino groups content of the peptides before and after in vitro GI digestion were measured. […]
ACE inhibitory activity assay was carried out according to the methods of Cushman and Cheung (1971) and Wu et al. (2002) with some modifications. […] Absorbance was measured at 228 nm. The percentage of ACE inhibition was calculated as follows: […]
Content of α-amino groups was performed according to Adler-Nissen (1979). […] The mixture was left at room temperature for 30 min before an absorbance at 420 nm was monitored. […] The content of α-amino groups was expressed as leucine equivalents.

Sequence: VSVVQYSR [VSVVQYSR]
- Decrease of ACE inhibitory activity after GI digestion: ~19%
